From the supplement of paper PMC10627819

Legend:
S. aureus Newman [1] = experiment: fitness (endpoint OD595 vs no drug) (fraction); higher = more growth
Outline: (§1)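 Fitness expresses the optical density reached at the stationary-phase transition as a fraction of the robust mean of no-drug control wells. It is capped at 1. Measurements were OD595 every 30 min for 14 h at 37 °C after inoculation of 384-well plates at OD595 0.01 (30 µl, or 55 µl for S. pneumoniae), minus the first reading.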

S. pneumoniae D39V [2] = experiment: as above
Outline: as §1

B. subtilis 168 [3] = experiment: as above
Outline: as §1

S. aureus DSM 20231 [4] = experiment: as above
Outline: as §1

S. aureus Newman [5] = experiment: Bliss interaction score (quartile over a dose matrix) (fitness difference); higher = more antagonism (negative = synergy)
Outline: (§2)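 Each plate was normalised to the robust mean of its own no-drug wells, using OD595 at entry into stationary phase, with values capped at 1. This normalised growth is the fitness value. The Bliss score is the difference between observed and product-expected fitness, with single-drug fitness inferred from the combination data and quartiles taken over technical, biological and donor/recipient replicates.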

S. pneumoniae D39V [6] = experiment: as above
Outline: as §2

B. subtilis 168 [7] = experiment: as above
Outline: as §2

S. aureus DSM 20231 [8] = experiment: as above
Outline: as §2

[9] = first compound 0.0075 µg/mL, partner 4 µg/mL
[10] = first compound 0.0075 µg/mL, partner 8 µg/mL
[11] = first compound 0.0075 µg/mL, partner 16 µg/mL
[12] = first compound 0.0075 µg/mL, partner 32 µg/mL, one replicate
[13] = first compound 0.0075 µg/mL, partner 64 µg/mL, one replicate
[14] = first compound 0.015 µg/mL, partner 16 µg/mL
[15] = first compound 0.015 µg/mL, partner 32 µg/mL, one replicate
[16] = first compound 0.015 µg/mL, partner 64 µg/mL, one replicate
[17] = first compound 0.03 µg/mL, partner 8 µg/mL
[18] = first compound 0.03 µg/mL, partner 16 µg/mL
[19] = first compound 0.03 µg/mL, partner 32 µg/mL, one replicate
[20] = first compound 0.03 µg/mL, partner 64 µg/mL, one replicate
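Throughout, for Bliss interaction score (quartile over a dose matrix): first quartile when negative (synergy) and third quartile when positive (antagonism).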

In the case of `COc1c(N2C[C@@H]3CCCN[C@@H]3C2)c(F)cc2c(=O)c(C(=O)O)cn(C3CC3)c12` [Moxifloxacin] + CN[C@@H]1[C@H](O)[C@H](NC)[C@H]2O[C@@]3(O)C(=O)C[C@@H](C)O[C@H]3O[C@@H]2[C@H]1O [Spectinomycin], the fitness (S. aureus Newman [1]; [9]) is reported as 0.742, the fitness (S. aureus Newman [1]; [10]) is reported as 0.748 and the fitness (S. aureus Newman [1]; [11]) is reported as 0.7. The fitness (S. aureus Newman [1]; [12]) was 0.464, the fitness (S. aureus Newman [1]; [13]) was 0.0581 and the fitness (S. aureus Newman [1]; [14]) was 0.497. The fitness (S. aureus Newman [1]; [15]) was 0.294, the fitness (S. aureus Newman [1]; [16]) was 0.047 and the fitness (S. aureus Newman [1]; [17]) was 0.0882. For the same compound, the fitness (S. aureus Newman [1]; [18]) was 0.0514, the fitness (S. aureus Newman [1]; [19]) was 0.0318 and the fitness (S. aureus Newman [1]; [20]) was 0.0289. The fitness (S. pneumoniae D39V [2]; first compound 0.0037 µg/mL, partner 4 µg/mL, one replicate) was 0.897, the fitness (S. pneumoniae D39V [2]; first compound 0.0037 µg/mL, partner 8 µg/mL, one replicate) was 0.83 and the fitness (S. pneumoniae D39V [2]; first compound 0.005 µg/mL, partner 4 µg/mL) was 0.923. It also gave a fitness (S. pneumoniae D39V [2]; first compound 0.005 µg/mL, partner 8 µg/mL) of 0.936, a fitness (S. pneumoniae D39V [2]; first compound 0.005 µg/mL, partner 16 µg/mL) of 0.82 and a fitness (S. pneumoniae D39V [2]; first compound 0.0075 µg/mL, partner 4 µg/mL, one replicate) of 0.912. For the same compound, the fitness (S. pneumoniae D39V [2]; first compound 0.0075 µg/mL, partner 8 µg/mL, one replicate) was 0.816, the fitness (S. pneumoniae D39V [2]; first compound 0.01 µg/mL, partner 4 µg/mL) was 0.944 and the fitness (S. pneumoniae D39V [2]; first compound 0.01 µg/mL, partner 8 µg/mL) was 0.93. For the same compound, the fitness (S. pneumoniae D39V [2]; first compound 0.01 µg/mL, partner 16 µg/mL) was 0.836, the fitness (S. pneumoniae D39V [2]; first compound 0.015 µg/mL, partner 4 µg/mL, one replicate) was 0.891 and the fitness (S. pneumoniae D39V [2]; first compound 0.015 µg/mL, partner 8 µg/mL, one replicate) was 0.813. For the same compound, the fitness (S. pneumoniae D39V [2]; first compound 0.02 µg/mL, partner 4 µg/mL) was 0.896, the fitness (S. pneumoniae D39V [2]; first compound 0.02 µg/mL, partner 8 µg/mL) was 0.843 and the fitness (S. pneumoniae D39V [2]; first compound 0.02 µg/mL, partner 16 µg/mL) was 0.796. For the same compound, the fitness (B. subtilis 168 [3]; first compound 0.0312 µg/mL, partner 2 µg/mL) was 0.0488, the fitness (B. subtilis 168 [3]; first compound 0.0312 µg/mL, partner 4 µg/mL) was 0.0437 and the fitness (B. subtilis 168 [3]; first compound 0.0312 µg/mL, partner 8 µg/mL) was 0.0518. For the same compound, the fitness (B. subtilis 168 [3]; first compound 0.0625 µg/mL, partner 2 µg/mL) was 0.0414, the fitness (B. subtilis 168 [3]; first compound 0.0625 µg/mL, partner 4 µg/mL) was 0.0348 and the fitness (B. subtilis 168 [3]; first compound 0.0625 µg/mL, partner 8 µg/mL) was 0.0153. For the same compound, the fitness (B. subtilis 168 [3]; first compound 0.125 µg/mL, partner 2 µg/mL) was 0.026, the fitness (B. subtilis 168 [3]; first compound 0.125 µg/mL, partner 4 µg/mL) was 0.0367 and the fitness (B. subtilis 168 [3]; first compound 0.125 µg/mL, partner 8 µg/mL) was 0.0296. For the same compound, the fitness (B. subtilis 168 [3]; first compound 2 µg/mL, partner 2 µg/mL) was 0.0229, the fitness (B. subtilis 168 [3]; first compound 2 µg/mL, partner 4 µg/mL) was 0.0184 and the fitness (B. subtilis 168 [3]; first compound 2 µg/mL, partner 8 µg/mL) was 0.0086. For the same compound, the fitness (B. subtilis 168 [3]; first compound 4 µg/mL, partner 2 µg/mL) was 0.0296, the fitness (B. subtilis 168 [3]; first compound 4 µg/mL, partner 4 µg/mL) was 0.0084 and the fitness (B. subtilis 168 [3]; first compound 4 µg/mL, partner 8 µg/mL) was 0.0039. For the same compound, the fitness (B. subtilis 168 [3]; first compound 8 µg/mL, partner 2 µg/mL) was 0.0255, the fitness (B. subtilis 168 [3]; first compound 8 µg/mL, partner 4 µg/mL) was 0.02 and the fitness (B. subtilis 168 [3]; first compound 8 µg/mL, partner 8 µg/mL) was 0.0092. The fitness (S. aureus DSM 20231 [4]; [9]) was 0.822, the fitness (S. aureus DSM 20231 [4]; [10]) was 0.848 and the fitness (S. aureus DSM 20231 [4]; [11]) was 0.731. For the same compound, the fitness (S. aureus DSM 20231 [4]; [12]) was 0.666, the fitness (S. aureus DSM 20231 [4]; [13]) was 0.0692 and the fitness (S. aureus DSM 20231 [4]; first compound 0.015 µg/mL, partner 4 µg/mL) was 0.725. For the same compound, the fitness (S. aureus DSM 20231 [4]; first compound 0.015 µg/mL, partner 8 µg/mL) was 0.734, the fitness (S. aureus DSM 20231 [4]; [14]) was 0.743 and the fitness (S. aureus DSM 20231 [4]; [15]) was 0.656. It also gave a fitness (S. aureus DSM 20231 [4]; [16]) of 0.0534, a fitness (S. aureus DSM 20231 [4]; first compound 0.03 µg/mL, partner 4 µg/mL) of 0.654 and a fitness (S. aureus DSM 20231 [4]; [17]) of 0.74. It also gave a fitness (S. aureus DSM 20231 [4]; [18]) of 0.694, a fitness (S. aureus DSM 20231 [4]; [19]) of 0.625 and a fitness (S. aureus DSM 20231 [4]; [20]) of 0.0231. It also gave a fitness (S. aureus DSM 20231 [4]; first compound 0.06 µg/mL, partner 4 µg/mL, one replicate) of 0.664, a fitness (S. aureus DSM 20231 [4]; first compound 0.06 µg/mL, partner 8 µg/mL, one replicate) of 0.675 and a fitness (S. aureus DSM 20231 [4]; first compound 0.06 µg/mL, partner 16 µg/mL, one replicate) of 0.673. It also gave a fitness (S. aureus DSM 20231 [4]; first compound 0.12 µg/mL, partner 4 µg/mL, one replicate) of 0.505, a fitness (S. aureus DSM 20231 [4]; first compound 0.12 µg/mL, partner 8 µg/mL, one replicate) of 0.457 and a fitness (S. aureus DSM 20231 [4]; first compound 0.12 µg/mL, partner 16 µg/mL, one replicate) of 0.523. For the same compound, the Bliss interaction score (S. aureus Newman [5]) was -0.0569, the Bliss interaction score (S. pneumoniae D39V [6]) was 0.0328 and the Bliss interaction score (B. subtilis 168 [7]) was -0.0287. It also gave a Bliss interaction score (S. aureus DSM 20231 [8]) of -0.0426.
